Data reported in patent US4496591A, “Insecticidal bis-carbamate sulfides” (priority 1981, dated 1985).

Tests used:
Assay type in all cases: in vivo
Sorghum = test: Phytotoxicity, sorghum; parameters: key: 0: the compounds had no visible effects on that plant species; details: scale 0 to 10, eight pounds per acre, approximately two weeks
Experimental: (§1) Several species of the novel compounds were tested for their phytotoxic effects. Two flats of each species of plants to be tested were planted 8-14 days before testing and grown at greenhouse conditions. One flat was sprayed with the chemical to be tested at the rate of eight pounds per acre while the other control flat was sprayed with solvent only. The results of such testing were recorded approximately two weeks after treatment and are reproduced in Table III below.
(§2) Numerical ratings from "0" to "10" are used to designate the degree of activity.

Marigold = test: Phytotoxicity, marigold; parameters: key: 0: the compounds had no visible effects on that plant species; details: scale 0 to 10, eight pounds per acre, approximately two weeks
Experimental: as §1, §2

Snapbean = test: Phytotoxicity, snapbean; parameters: key: 0: the compounds had no visible effects on that plant species; details: scale 0 to 10, eight pounds per acre, approximately two weeks
Experimental: as §1, §2

flax = test: Phytotoxicity, flax; parameters: key: 0: the compounds had no visible effects on that plant species; details: scale 0 to 10, eight pounds per acre, approximately two weeks
Experimental: as §1, §2

Cucumber = test: Phytotoxicity, cucumber; parameters: key: 0: the compounds had no visible effects on that plant species; details: scale 0 to 10, eight pounds per acre, approximately two weeks
Experimental: as §1, §2

[1] = test system: egg of the Southern armyworm (Spodoptera eridania (Cram.)); test: Southern armyworm ovicide test; parameters: key: A: excellent control; B: partial control; C: no control at 500 ppm; details: 500 parts per million, egg dip, four days
Experimental: (§3) Suspensions of the test compounds were prepared by dissolving one gram of compound in 50 milliliters of acetone in which had been dissolved 0.1 gram (10 percent of the weight of compound) of an alkylphenoxy polyethoxyethanol surfactant, as an emulsifying or dispersing agent. The resulting solution was mixed into 150 milliliters of water to give roughly 200 milliliters of a suspension containing the compound in finely divided form. The thus-prepared stock suspension contained 0.5 percent by weight of compound. The concentrations in parts per million by weight employed in the tests described hereinbelow were obtained by appropriate dilutions of the stock suspension with water. The test procedures were as follows:
The test organism was the egg of the Southern armyworm (Spodoptera eridania (Cram.)) as obtained from adults reared on Tendergreen bean plants at a temperature of 80±5° F. and a relative humidity of 50±5 percent. The eggs were laid on freezer paper (Marlon 717, Copco paper) and then cut into small sections containing one or two egg masses.
The test compounds were formulated by diluting the stock suspension with water to give a suspension containing 500 parts of test compound per million parts of final formulation. The egg masses were then dipped until they were thoroughly wet (5-10 seconds). They were then placed on a paper towel face up and were allowed to dry for 15-30 minutes. The dry eggs were placed in a 15×60 mm petri dish containing a cotton dental wick saturated with a 5 percent sodium chloride solution to maintain a high level of humidity. The closed dishes were labeled and held at a temperature of 80±5° F. for four days. Larvae that emerged from the egg, even if dead at the time of observation, were recorded as hatched.
(§4) In these tests the pesticidal activity of the compounds at the indicated dosage rate against aphid, Southern Armyworm, Bean Beetle and housefly was rated as follows: […]

[2] = test system: house flies (Musca domestica, L.); test: Fly bait test; parameters: key: A: excellent control; B: partial control; C: no control at 500 ppm; details: 500 parts per million, sugar bait, twenty-four hours
Experimental: as §3
Four to six day old adult house flies (Musca domestica, L.), reared according to the specifications of the Chemical Specialties Manufacturing Association (Blue Book, McNair-Dorland Co., N.Y. 1954; pages 243-244, 261) under controlled conditions of 80±5° F. and 50±5 percent relative humidity, were the test insects. The flies were immobilized by anesthetizing them with carbon dioxide. Twenty-five immobilized individuals, males and females, were transferred to a cage consisting of a standard food strainer about five inches in diameter which was inverted over a wrapping-paper-covered surface. The test compounds were formulated by diluting the stock suspension with a 10 percent (by weight) sugar solution to give a suspension containing 500 parts of test compound per million parts of final formulation, by weight. Ten milliliters of the test formulation were added to a souffle cup containing a one-inch square of an absorbent cotton pad. This bait cup was introduced and centered on the blotting paper under the food strainer prior to admitting the anesthetized flies. The caged flies were allowed to feed on the bait for twenty-four hours, at a temperature of 80±5° F. and at a relative humidity of 50±5 percent.
as §4

[3] = test system: Mexican bean beetle (Epilachna varivestis, Muls.) larvae; test: Mexican bean beetle leaf spray test; parameters: key: A: excellent control; B: partial control; C: no control at 500 ppm; details: 500 parts per million, fourth instar larvae, three days
Experimental: as §3
Fourth instar larvae of the Mexican bean beetle (Epilachna varivestis, Muls.), reared on Tendergreen bean plants at a temperature of 80±5° F. and 50±5° F. percent relative humdity, were the test insects.
The test compounds were formulated by diluting the stock suspension with water to give a suspension containing 500 parts of test compound per million parts of final formulation. Tendergreen bean plants of standard height and age were placed on a revolving turntable and sprayed with 100-110 milliliters of test compound formulation by use of a DeVilbiss spray gun set at 40 psig air pressure. This application, which lasted 25 seconds, was sufficient to wet the plants to run-off. As a control, 100-110 milliliters of a water-acetone-emulsifier solution containing no test compound was also sprayed on infested plants. When dry, the paired leaves were separated and each was placed in a 9 centimeter Petri dish lined with moistened filter paper. Five randomly selected larvae were introduced into each dish, and the dishes were closed. The closed dishes were labeled and held at a temperature of 80±5° F., for three days. Although the larvae could easily consume the leaf within 24 to 48 hours, no more food was added. Larvae which were unable to move the length of the body, even upon stimulation, were considered dead.
as §4

[4] = test system: root-knot nematode, Meloidogyne incognita var. acrita; test: Nematocide test; parameters: key: 1: severe galling, equal to untreated plants; 2: moderate galling; 3: light galling; 4: very light galling; 5: no galling, perfect control; details: 3.33 m.g. per jar, cucumber, approximately 3 weeks
Experimental: The test organism used was the infective migratory larvae of the root-knot nematode, Meloidogyne incognita var. acrita, reared in the greenhouse on roots of cucumber plants. Infected plants were removed from the culture, and the roots were chopped very finely. A small amount of this inoculum was added to a pint jar containing approximately 180 cc. of soil. The jars were capped and incubated for one week at room temperature. During this period eggs of the nematode were hatched, and the larval forms migrated into the soil.
Ten ml. of the test formulation were added to each of the two jars for each dosage tested. Following the addition of chemical, the jars were capped, and the contents thoroughly mixed on a ball mill for […].
The test compounds were formulated by a standard procedure of solution in acetone addition of an emulsifier, and dilution with water. Primary screening tests were conducted at 3.33 m.g. of the test compound per jar.
The jars were left capped at room temperature for a period of 48 hours, and the contents then transferred to 3 inch pots. Subsequently, the pots were seeded to cucumber as an indicator crop and placed in the greenhouse where they were cared for in the normal fashion for approximately 3 weeks.
The cucumber plants were then taken from the pots, the soil removed from the roots, and the amount of galling visually rated.
In the test for activity against nematodes activity was rated as follows: […]

[5] = test system: southern armyworm (Spodoptera eridania, (Cram.)) larvae; test: Southern armyworm leaf spray bait test; parameters: key: A: excellent control; B: partial control; C: no control at 500 ppm; details: 500 parts per million, three days
Experimental: as §3
Larvae of the southern armyworm (Spodoptera eridania, (Cram.)), reared on Tendergreen bean plants at a temperature of 80±5° F. and a reative humidity of 50±5 percent, constituted the test insects.
The test compounds were formulated by diluting the stock suspension with water to give a suspension containing 500 parts of test compound per million parts of final formulation. Potted Tendergreen bean plants of standard height and age were placed on a revolving turntable and sprayed with 100-110 milliliters of test compound formulation by use of a DeVilbiss spray gun set at 40 psig air pressure. This application, which lasted 25 seconds, was sufficient to wet the plants to run-off. As a control, 100-110 milliliters of a water-acetone-emulsifier solution containing no test compound were also sprayed on infested plants. When dry, the paired leaves were separated and each one was placed in a 9 centimeter Petri dish lines with moistened filter paper. Five randomly selected larvae were introduced into each dish and the dishes were closed. The closed dishes were labeled and held at 80°-85° F. for three days. Although the larvae could easily consume the whole leaf within twenty-four hours, no more food was added. Larvae which were unable to move the length of the body, even upon stimulation by prodding, were considered dead.
as §4

[6] = test system: bean aphid (Aphis fabae Scop.); test: Bean aphid foliage spray test; parameters: key: A: excellent control; B: partial control; C: no control at 500 ppm; details: 500 parts per million, 24 hour
Experimental: as §3
Adults and nymphal stages of the bean aphid (Aphis fabae Scop.) reared on potted dwarf nasturtium plants at 68°-70° F. and 50±5 percent relative humidity, constituted the test insects. For testing purposes, the number of aphids per pot were standardized to 100-150 by trimming plants containing excess aphids.
The test compounds were formulated by diluting the stock suspension with water to give a suspension containing 500 parts of test compound per million parts of final formulation.
The potted plants (one pot per compound tested) infested with 100-150 aphids, were placed on a revolving turntable and sprayed with 100-110 milliliters of test compound formulation by use of a DeVilbiss spray gun set at 40 psig. air pressure. This application, which lasted 25 seconds, was sufficient to wet the plants to run-off. As a control, 100-110 milliliters of a water-acetone-emulsifier solution containing no test compound was also sprayed on infested plants. After spraying, the pots were placed on their sides on a sheet of white standard mimeograph paper which had been previously ruled to facilitate counting. Temperature and humidity in the test room during the 24 hour holding period were 68°-70° F. and 50±5 percent, respectively. Aphids which fell onto the paper and were unable to remain standing after being uprighted were considered dead. Aphids remaining on the plants were observed closely for movement and those which were unable to move the length of the body upon stimulation by prodding were considered dead.
as §4

| SMILES | Phytotoxicity rating, Sorghum (Sorghum) | Phytotoxicity rating, Marigold (Marigold) | Phytotoxicity rating, Snapbean (Snapbean) | Phytotoxicity rating, flax (flax) | Phytotoxicity rating, Cucumber (Cucumber) | Southern Armyworm (egg), pesticidal activity rating [1] | Housefly, pesticidal activity rating [2] | Mexican Bean Beetle, pesticidal activity rating [3] | Root-Knot Nematode, galling rating [4] | Southern Armyworm, pesticidal activity rating [5] | Aphids, pesticidal activity rating [6] |
| --- | --- | --- | --- | --- | --- | --- | --- | --- | --- | --- | --- |
| CSC(C)=NOC(=O)N(C)SN(C)C(=O)Oc1ccccc1C=O [drawing 25] | 0 | 0 | 0 | 0 | 0 | – | – | – | – | – | – |
| CSC(C)=NOC(=O)N(C)SN(C)C(=O)Oc1cccc(C(C)=O)c1 [drawing 26] | 0 | 0 | 0 | 0 | 0 | – | – | – | – | – | – |
| CSC(C)=NOC(=O)N(C)SN(C)C(=O)Oc1ccccc1C=O [Compound 8] | – | – | – | – | – | B | A | A | 4 | A | A |
| CSC(C)=NOC(=O)N(C)SN(C)C(=O)Oc1ccc(C(=O)c2ccccc2)cc1 [Compound 6] | – | – | – | – | – | A | A | A | 4 | A | A |
| CSC(C)=NOC(=O)N(C)SN(C)C(=O)Oc1ccccc1C(C)=O | 0 | 0 | 0 | 0 | 0 | – | – | – | – | – | – |
| CSC(C)=NOC(=O)N(C)SN(C)C(=O)Oc1ccc(C(C)=O)cc1 [Compound 2] | – | – | – | – | – | A | A | A | 5 | A | A |
| CSC(C)=NOC(=O)N(C)SN(C)C(=O)Oc1cc(C)c(C)cc1C(C)=O [Compound 9] | – | – | – | – | – | A | A | A | 1 | A | A |
| CSC(C)=NOC(=O)N(C)SN(C)C(=O)Oc1cccc(C(C)=O)c1 [Compound 1, S-Methyl-N-[[[N'-[[N"-[(3-acetylphenoxy)carbonyl]-N"-methylaminosulfenyl]]-N'-methylcarbamoyloxy]]]thioacetimidate] | – | – | – | – | – | A | A | A | 5 | A | A |
